Measured values published in ChEMBL document CHEMBL3632492, “Substituted 2-arylquinazolinones: Design, synthesis, and evaluation of cytotoxicity and inhibition of topoisomerases” (Eur J Med Chem, 2015).

What was measured:
[1] = target: DNA topoisomerase 2-alpha (Homo sapiens) (UniProt P11388); assay: Inhibition of recombinant human topoisomerase 2alpha mediated decatenation using kDNA as substrate at 100 uM incubated for 30 mins by agarose gel electrophoresis
[2] = target: T1, DNA topoisomerase 1 (Homo sapiens) (UniProt P11387); assay: Inhibition of recombinant human topoisomerase 1 assessed as relaxation of supercoiled plasmid DNA pBR322 at 20 uM incubated for 30 mins by agarose gel electrophoresis
T1 sequence (whole entry): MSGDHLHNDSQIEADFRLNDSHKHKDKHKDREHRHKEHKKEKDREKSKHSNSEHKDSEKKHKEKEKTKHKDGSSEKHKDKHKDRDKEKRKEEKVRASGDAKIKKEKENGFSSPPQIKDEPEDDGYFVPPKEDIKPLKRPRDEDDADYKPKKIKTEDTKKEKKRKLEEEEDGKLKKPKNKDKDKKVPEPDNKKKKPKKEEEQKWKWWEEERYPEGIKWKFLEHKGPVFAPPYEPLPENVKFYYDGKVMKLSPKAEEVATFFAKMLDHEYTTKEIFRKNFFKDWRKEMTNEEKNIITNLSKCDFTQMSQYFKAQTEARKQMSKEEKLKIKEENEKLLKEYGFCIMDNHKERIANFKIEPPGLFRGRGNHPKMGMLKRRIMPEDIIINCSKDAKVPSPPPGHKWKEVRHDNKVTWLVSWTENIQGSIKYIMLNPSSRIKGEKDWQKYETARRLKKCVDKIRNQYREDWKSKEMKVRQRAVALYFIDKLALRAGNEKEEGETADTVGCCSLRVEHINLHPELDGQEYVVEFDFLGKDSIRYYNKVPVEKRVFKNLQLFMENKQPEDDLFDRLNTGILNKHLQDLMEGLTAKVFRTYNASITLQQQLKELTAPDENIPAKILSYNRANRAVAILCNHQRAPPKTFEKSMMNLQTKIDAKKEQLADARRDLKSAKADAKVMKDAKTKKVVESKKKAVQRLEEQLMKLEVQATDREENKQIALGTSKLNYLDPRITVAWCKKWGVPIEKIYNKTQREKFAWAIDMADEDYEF

[3] = target: T1, DNA topoisomerase 1 (Homo sapiens); assay: Potency index, ratio of compound activity to CPT activity for inhibition of recombinant human topoisomerase 1 at 20 uM
[4] = target: DNA topoisomerase 2-alpha (Homo sapiens) (UniProt P11388); assay: Inhibition of recombinant human topoisomerase 2alpha mediated decatenation using kDNA as substrate at 50 uM incubated for 30 mins by agarose gel electrophoresis
[5] = target: T1, DNA topoisomerase 1 (Homo sapiens); assay: Inhibition of recombinant human topoisomerase 1 assessed as relaxation of supercoiled plasmid DNA pBR322 at 100 uM incubated for 30 mins by agarose gel electrophoresis
HCT-15 = assay: Cytotoxicity against human HCT15 cells measured after 2 days by MTT assay; assay type: functional, cell-based; settings: HCT-15, 48 h
[6] = target: DNA topoisomerase 2-alpha (Homo sapiens) (UniProt P11388); assay: Inhibition of recombinant human topoisomerase 2alpha assessed as relaxation of supercoiled plasmid DNA pBR322 at 100 uM incubated for 30 mins by agarose gel electrophoresis
[7] = target: DNA topoisomerase 2-alpha (Homo sapiens) (UniProt P11388); assay: Inhibition of recombinant human topoisomerase 2alpha assessed as relaxation of supercoiled plasmid DNA pBR322 at 20 uM incubated for 30 mins by agarose gel electrophoresis
[8] = target: DNA topoisomerase 2-alpha (Homo sapiens) (UniProt P11388); assay: Potency index, ratio of compound activity to etoposide activity for inhibition of recombinant human topoisomerase 2alpha at 20 uM
T47D = assay: Cytotoxicity against human T47D cells measured after 2 days by MTT assay; assay type: functional, cell-based; settings: 48 h
HeLa = assay: Cytotoxicity against human HeLa cells measured after 2 days by MTT assay; assay type: functional, cell-based; settings: 48 h
[9] = target: DNA topoisomerase 2-alpha (Homo sapiens) (UniProt P11388); assay: Potency index, ratio of compound activity to etoposide activity for inhibition of recombinant human topoisomerase 2alpha at 100 uM
[10] = target: T1, DNA topoisomerase 1 (Homo sapiens); assay: Potency index, ratio of compound activity to CPT activity for inhibition of recombinant human topoisomerase 1 at 100 uM

Chain of DNA topoisomerase 2-alpha (Homo sapiens) (P11388 whole entry): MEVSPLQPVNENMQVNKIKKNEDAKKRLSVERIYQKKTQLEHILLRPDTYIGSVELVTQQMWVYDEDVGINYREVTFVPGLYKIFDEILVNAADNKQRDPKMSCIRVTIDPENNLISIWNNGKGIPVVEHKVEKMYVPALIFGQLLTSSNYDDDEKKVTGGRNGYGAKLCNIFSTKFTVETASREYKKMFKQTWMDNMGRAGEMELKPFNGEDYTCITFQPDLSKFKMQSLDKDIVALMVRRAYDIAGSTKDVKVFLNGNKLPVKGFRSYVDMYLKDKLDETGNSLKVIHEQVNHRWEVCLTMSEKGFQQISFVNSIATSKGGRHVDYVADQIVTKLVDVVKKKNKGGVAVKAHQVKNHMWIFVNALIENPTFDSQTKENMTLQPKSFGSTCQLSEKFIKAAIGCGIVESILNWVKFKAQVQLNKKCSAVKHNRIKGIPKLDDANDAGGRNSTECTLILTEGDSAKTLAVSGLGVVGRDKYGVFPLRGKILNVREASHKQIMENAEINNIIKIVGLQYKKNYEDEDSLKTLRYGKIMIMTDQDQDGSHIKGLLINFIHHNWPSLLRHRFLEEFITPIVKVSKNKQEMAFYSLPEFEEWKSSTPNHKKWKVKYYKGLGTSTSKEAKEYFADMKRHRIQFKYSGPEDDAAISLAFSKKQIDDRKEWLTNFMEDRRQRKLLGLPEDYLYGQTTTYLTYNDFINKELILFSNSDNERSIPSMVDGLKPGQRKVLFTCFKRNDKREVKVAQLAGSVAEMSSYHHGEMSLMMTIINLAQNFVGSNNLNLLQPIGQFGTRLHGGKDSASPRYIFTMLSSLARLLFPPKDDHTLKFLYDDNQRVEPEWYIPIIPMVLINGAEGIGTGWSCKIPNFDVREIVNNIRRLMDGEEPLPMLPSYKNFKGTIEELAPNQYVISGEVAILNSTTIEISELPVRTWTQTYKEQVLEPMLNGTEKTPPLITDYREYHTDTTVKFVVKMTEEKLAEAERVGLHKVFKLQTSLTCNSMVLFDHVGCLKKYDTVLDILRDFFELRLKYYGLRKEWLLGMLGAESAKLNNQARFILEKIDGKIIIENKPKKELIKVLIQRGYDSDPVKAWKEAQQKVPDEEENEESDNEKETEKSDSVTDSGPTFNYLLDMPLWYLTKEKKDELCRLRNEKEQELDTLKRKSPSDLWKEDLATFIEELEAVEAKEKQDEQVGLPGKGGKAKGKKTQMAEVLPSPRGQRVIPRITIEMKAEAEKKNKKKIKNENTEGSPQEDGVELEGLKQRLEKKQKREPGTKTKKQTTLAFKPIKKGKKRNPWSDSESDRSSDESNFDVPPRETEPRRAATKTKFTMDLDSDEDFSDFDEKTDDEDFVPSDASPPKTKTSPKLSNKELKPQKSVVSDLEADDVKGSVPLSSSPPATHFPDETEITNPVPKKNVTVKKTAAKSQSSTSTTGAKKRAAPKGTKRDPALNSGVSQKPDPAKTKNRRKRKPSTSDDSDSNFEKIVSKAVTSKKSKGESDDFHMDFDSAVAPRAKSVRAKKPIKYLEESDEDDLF

Row | SMILES | inhibition [1] [%] | inhibition [2] [%] | Ratio [3] | inhibition [4] [%] | inhibition [5] [%] | IC50 (HCT-15) [µM] | inhibition [6] [%] | inhibition [7] [%] | Ratio [8] | IC50 (T47D) [µM] | IC50 (HeLa) [µM] | Ratio [9] | Ratio [10]
1 | Cc1c2ccncc2c(C)c2c1[nH]c1ccccc12 | 88.3 |  |  |  |  |  |  |  |  |  |  |  | 
2 | O=c1[nH]c(-c2cccc3ccccc23)nc2ccc(N3CCOCC3)cc12 | 83.8 | 10.7 | 0.62 | 3.2 | 100 | > 50 | 46.4 | 39.2 | 0.78 | > 50 | 0.12 | 0.58 | 1.24
3 | Cc1ccc2c(=O)[nH]c(-c3ccccc3C)nc2c1 | 32.4 | 39.2 | 1.27 | 0 | 100 | 11.9 | 61.4 | 30.8 | 0.62 | > 50 | > 50 | 0.77 | 1.29
